This is an account of results in patent US5702728A, “Clam extract preparation, the method of preparation and use thereof” (priority 1993, dated 1997).

In experiment [1] the test system is Body Torsion Reaction of Mice Caused by Acetic Acid. Description: Body torsion reaction of mice caused by acetic acid, intrarectal administration. As to conditions: 7.5 mg/kg. Type of experiment: in vivo. The protocol: (§1) The purpose of the test is to observe effects of the suppository prepared by the clam extract composition of the invention on pains of mice caused by chemical and electric irritation, and the time of initiation and duration of the effect.
(§2) The clam extract composition of the invention was dissolved in 2 mol acetic acid and the pH value was adjusted to be 6.5~7.0. Then normal saline in an adequate amount was added.
(§3) Indomethacin: produced by Nantong Second Pharmaceutical Factory, with the lot number of 860321, which was formulated into a suspension with 2% of water-soluble starch paste.
After fasting for 12 hours, 60 mice were randomly allotted into 6 groups based on their body weight and sex. The drug was intrarectally administered in the dosage indicated in Table 3 and the volume of drug administered was 0.05 ml per mouse. 35 minutes later, 0.20 ml of 0.6% acetic acid was intraperitoneally injected to each mouse. The number of body torsion reactions (abdominal excavation, extension of trunk and hind limbs, and elevation of buttock) observed within 15 minutes after the injection of acetic acid was recorded.

For experiment [2], the system named is Pain Threshold of Tail Roots of Mice Caused by Electric Irritation. Description: Pain threshold of tail roots of mice, electric irritation. Type of experiment: in vivo. As to conditions: 7.5 mg/kg; for Pain threshold: before medication 0.22 ± 0.08, P < 0.05; for Increasing percentage of the pain threshold: intrarectal, P < 0.01 vs control. Here is the method: as §1, §2, §3
An electric stimulator of Model NEN-7103, and an isolator of Model SS-102J, made in Japan.
After fasting for 12 hours, 50 mice were randomly allotted into 5 groups based on their body weight and sex. The root of mouse's tail was stimulated with electric current of square wave (10 ms of pulse width and 1 Hz of the frequency). The pain threshold was determined as the electric intensity which just makes the mouse screaming. The drug was intrarectally administered with the volume of 0.05 ml per mouse. […]

The test system of experiment [3] is Body Torsion Reaction of Mice Caused by Acetic Acid. Kind of experiment: Body torsion reaction of mice caused by acetic acid, oral administration. Type of experiment: in vivo, Kunming strain mice. The note with it: 0.03 (head mg/kg; text 30 mg/kg). The protocol:
Clam extract composition of the invention was dissolved in 2N acetic acid and the pH value was adjusted to be 6.5~7.0. The normal saline in an adequate amount was added to formulate a solution. Indomethacin: produced by Shijiazhuang Pharmaceutical Factory, with the lot number of 009011021, which was formulated into a suspension with 2% of starch paste.
Kunming strain mice, male and female, with body weight of 20±2 g, provided by the Department of Animals of Beijing Medical University.
Fifty mice were randomly allotted into 5 groups based on their body weight and sex. In the control group, 0.2 ml/kg body weight of normal saline was administered per oral; while in the positive group, 30 mg/kg of indomethacin was administered per oral. […] 90 minutes later, 0.2 ml of 0.6% acetic acid per mouse was intraperitoneally injected and the number of body torsion reactions (abdominal excavation, extension of trunk and hind limbs, and elevation of buttock) of the mouse observed within 15 minutes after the injection of acetic acid was recorded.

SMILES strings stand for the structures.

Take `COc1ccc2c(c1)c(CC(=O)O)c(C)n2C(=O)c1ccc(Cl)cc1` [Indomethacin]: the figures for the Inhibition rate in experiment [1] and in experiment [3] were 93.1% and 93.7%, respectively. The “Number of body torsions” value in experiment [1] (control 39.3 ± 14.4) was 2.7 ± 4.1 n; in experiment [3] (control 44.1 ± 12.8, P < 0.01) it was 2.8 ± 4.8 n. Further, the Pain threshold came out at 0.32 ± 0.06 mA in experiment [2] (20 min, control 0.25 ± 0.08); 0.41 ± 0.12 mA in experiment [2] (40 min, control 0.28 ± 0.11); 0.44 ± 0.15 mA in experiment [2] (60 min, control 0.26 ± 0.13); 0.41 ± 0.13 mA in experiment [2] (90 min, control 0.26 ± 0.13); 0.38 ± 0.13 mA in experiment [2] (120 min, control 0.25 ± 0.11). The “Increasing percentage of the pain threshold” value is 37.4 ± 18.4 percentage in experiment [2] (20 min); 71.4 ± 39.4 percentage in experiment [2] (40 min); 86.3 ± 45.9 percentage in experiment [2] (60 min); 72.5 ± 59.1 percentage in experiment [2] (90 min); 69.6 ± 62.3 percentage in experiment [2] (120 min).
